According to article PMC12238268, “The immunomodulatory p43 secreted protein of Trichuris whipworm parasites is a lipid carrier that binds signalling lipids and precursors” (Scientific Reports, 2025):

Assays:
Format in all cases: binding
[1] = target: T1, p43 (Tm-DLP-1) (Trichuris muris, UniProt A0A5S6QYG9); assay: intrinsic fluorescence enhancement of ligand; details: PBS pH 7.2
T1 construct: native, purified from adult worm excretory/secretory medium by Ni-NTA (natural His-rich tail) and Superdex 75; signal peptide predicted cleaved between 17 and 18
T1 sequence (A0A5S6QYG9 entry or part of it): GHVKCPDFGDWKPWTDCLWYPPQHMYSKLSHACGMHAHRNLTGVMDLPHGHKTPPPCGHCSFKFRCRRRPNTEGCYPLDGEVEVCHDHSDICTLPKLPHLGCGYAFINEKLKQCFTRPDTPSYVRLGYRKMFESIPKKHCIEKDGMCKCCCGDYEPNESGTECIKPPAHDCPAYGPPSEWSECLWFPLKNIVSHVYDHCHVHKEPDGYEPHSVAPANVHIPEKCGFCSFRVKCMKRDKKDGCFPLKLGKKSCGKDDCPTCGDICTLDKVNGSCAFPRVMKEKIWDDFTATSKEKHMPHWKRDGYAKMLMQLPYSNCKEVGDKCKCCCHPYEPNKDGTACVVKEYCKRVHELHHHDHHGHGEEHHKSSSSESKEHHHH

[2] = target: T1, p43 (Tm-DLP-1); assay: fluorescence enhancement and blue shift of probe; details: approximately 1 μM DACA; PBS pH 7.2
[3] = target: T1, p43 (Tm-DLP-1); assay: fluorescence titration

Compound: CC\C=C/C=C/C=C/C=C\CCCCCCCC(=O)O [cis-parinaric acid]
- intrinsic fluorescence enhancement of ligand ([1]; approximately 4 μM cPnA): p43 bound cPnA strongly and was displaceable with oleic acid (Fig. 1C)

Compound: CCCCCCC(NS(=O)(=O)c1cccc2c(N(C)C)cccc12)C(=O)O (stereo not shown) [dansyl aminocaprylic acid]
- fluorescence enhancement and blue shift of probe [2]: essentially the same observations with another fluorescent probe, dansyl aminocaprylic acid (DACA)

Compound: CC1=C(/C=C/C(C)=C/C=C/C(C)=C/CO)C(C)(C)CCC1 [retinol]
- intrinsic fluorescence enhancement of ligand ([1]; approximately 1 μM retinol): p43 bound retinol, from which it was displaceable by oleic acid (Fig. 2A)

Compound: CN(C)c1cccc2c(S(=O)(=O)NCCCCCCCCCCC(=O)O)cccc12 [DAUDA, 11-((5-dimethylaminonaphthalene-1-sulfonyl)amino)undecanoic]
- Kd [3]: 350 nM
